Laboratory results taken from patent US8101774B2, “Ester derivatives and medicinal use thereof” (Japan Tobacco Inc., priority 2004, dated 2012).

Biological target: T1, Microsomal triglyceride transfer protein (MTP) from human small intestine microsome (Homo sapiens, UniProt P55157)
T1 construct: Human small intestine microsome was dialyzed against 10 mM phosphate buffer; tissue Tissue Transforming Technologies, Inc; host or cells: human small intestine microsome
Assay: Inhibition test of interliposomal triglyceride (TG) transfer activity by MTP
Assay type: biochemical
Conditions: purified MTP from human small intestine microsome, 37° C., 1.5 hours
Outline: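 DEAE-purified human small intestine MTP (50 μL of 20 μg/mL) incubated 1.5 hours at 37° C with ^14C-triolein donor and unlabelled acceptor SUV liposomes in pH 7.4 Tris buffer with 0.5% BSA. Donor removed on DEAE cellulose; acceptor radioactivity counted, blank-corrected against DMSO control, giving percent inhibition and IC50.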

T1 sequence (P55157 19-894): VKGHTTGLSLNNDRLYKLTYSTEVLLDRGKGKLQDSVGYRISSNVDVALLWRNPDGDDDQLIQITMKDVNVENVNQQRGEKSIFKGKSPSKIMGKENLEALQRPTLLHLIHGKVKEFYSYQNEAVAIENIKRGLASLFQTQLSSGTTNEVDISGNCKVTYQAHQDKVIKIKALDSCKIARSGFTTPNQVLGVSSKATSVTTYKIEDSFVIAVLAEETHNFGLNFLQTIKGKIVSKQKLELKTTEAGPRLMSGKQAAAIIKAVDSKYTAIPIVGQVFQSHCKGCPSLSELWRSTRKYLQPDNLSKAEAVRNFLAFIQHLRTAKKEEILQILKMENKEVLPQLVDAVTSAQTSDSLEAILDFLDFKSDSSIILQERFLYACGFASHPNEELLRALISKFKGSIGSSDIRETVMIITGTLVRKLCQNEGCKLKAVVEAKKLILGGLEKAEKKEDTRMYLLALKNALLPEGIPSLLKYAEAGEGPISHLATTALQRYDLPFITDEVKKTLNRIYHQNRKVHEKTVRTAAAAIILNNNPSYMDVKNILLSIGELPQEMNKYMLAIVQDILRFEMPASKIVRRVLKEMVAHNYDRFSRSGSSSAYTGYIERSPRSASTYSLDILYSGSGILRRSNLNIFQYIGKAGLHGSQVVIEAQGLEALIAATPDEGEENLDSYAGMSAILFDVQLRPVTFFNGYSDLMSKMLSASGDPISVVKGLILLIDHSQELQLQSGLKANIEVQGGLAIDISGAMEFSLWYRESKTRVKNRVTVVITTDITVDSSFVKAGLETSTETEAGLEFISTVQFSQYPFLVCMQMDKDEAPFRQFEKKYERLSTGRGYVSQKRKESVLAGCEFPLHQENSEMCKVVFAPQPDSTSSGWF
T1 sequence (P07237 18-508 partner): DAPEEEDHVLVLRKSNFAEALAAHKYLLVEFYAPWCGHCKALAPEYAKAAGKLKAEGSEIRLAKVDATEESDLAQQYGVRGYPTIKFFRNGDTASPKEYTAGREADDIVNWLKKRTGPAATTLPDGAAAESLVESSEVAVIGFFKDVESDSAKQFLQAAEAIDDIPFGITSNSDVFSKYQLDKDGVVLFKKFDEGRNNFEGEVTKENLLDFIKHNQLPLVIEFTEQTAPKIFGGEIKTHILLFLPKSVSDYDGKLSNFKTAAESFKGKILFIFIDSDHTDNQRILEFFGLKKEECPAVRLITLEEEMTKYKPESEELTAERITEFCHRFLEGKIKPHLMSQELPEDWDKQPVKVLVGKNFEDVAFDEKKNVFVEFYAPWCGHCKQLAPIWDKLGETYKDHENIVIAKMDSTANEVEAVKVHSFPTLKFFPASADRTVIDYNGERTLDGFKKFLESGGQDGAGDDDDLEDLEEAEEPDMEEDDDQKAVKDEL

Row | Compound | IC50 [nM]
1 | CCOc1cc(C(=O)OC)cc(Cl)c1OC(=O)CCCc1ccc(NC(=O)c2ccc(C)nc2-c2ccc(C(F)(F)F)cc2)c(C(=O)N(C)C)c1 [Compound 1-40, 3-chloro-4-[4-(3-dimethylcarbamoyl-4-{[6-methyl-2-(4-trifluoromethylphenyl)pyridine-3-carbonyl]amino}phenyl)butyryloxy]-5-ethoxybenzoic acid methyl ester] | < 10
2 | CN(C)C(=O)c1cc(CCCC(=O)Oc2ccc(C(=O)OCc3ccccc3)cc2)ccc1NC(=O)c1ccccc1-c1ccc(C(F)(F)F)cc1 [Compound 1-24, 4-(4-{3-dimethylcarbamoyl-4-[(4′-trifluoromethylbiphenyl-2-carbonyl)amino]phenyl}butyryloxy)benzoic acid benzyl ester] | < 10
3 | COC(=O)c1ccc(OC(=O)CCCc2ccc(NC(=O)c3ccccc3-c3ccc(C(F)(F)F)cc3)c(C(=O)N(C)C)c2)cc1Cl [Compound 1-18, 2-chloro-4-(4-{3-dimethylcarbamoyl-4-[(4′-trifluoromethylbiphenyl-2-carbonyl)amino]phenyl}butyryloxy)benzoic acid methyl ester] | < 10
4 | COC(=O)c1cc(OC)c(OC(=O)CCCc2ccc(NC(=O)c3ccc(C)nc3-c3ccc(C(F)(F)F)cc3)c(C(=O)N(C)C)c2)c(C(F)(F)F)c1 [Compound 1-47, 4-[4-(3-dimethylcarbamoyl-4-{[6-methyl-2-(4-trifluoromethylphenyl)pyridine-3-carbonyl]amino}phenyl)butyryloxy]-3-methoxy-5-trifluoromethylbenzoic acid methyl ester] | < 10
5 | COC(=O)c1ccc(OC(=O)CCCc2ccc(NC(=O)c3ccccc3-c3ccc(C(F)(F)F)cc3)c(C(=O)N3CCCC3)c2)cc1 [Compound 1-15, 4-(4-{3-(pyrrolidine-1-carbonyl)-4-[(4′-trifluoromethylbiphenyl-2-carbonyl)amino]phenyl}butyryloxy)benzoic acid methyl ester] | < 10
6 | COc1cc(C(=O)OC(C)C)cc(OC)c1OC(=O)CCCc1ccc(NC(=O)c2ccc(C)nc2-c2ccc(C(F)(F)F)cc2)c(C(=O)N(C)C)c1 [Compound 1-44, 4-[4-(3-dimethylcarbamoyl-4-{[6-methyl-2-(4-trifluoromethylphenyl)pyridine-3-carbonyl]amino}phenyl)butyryloxy]-3,5-dimethoxybenzoic acid isopropyl ester] | < 10
7 | COC(=O)c1ccc(OC(=O)CCCc2ccc(NC(=O)c3ccccc3-c3ccc(C(F)(F)F)cc3)c(C(=O)N(C)C)c2)cc1 [Compound 1-5] | < 10
8 | CN(C)C(=O)c1cc(CCCC(=O)Oc2ccc(C#N)cc2)ccc1NC(=O)c1ccccc1-c1ccc(C(F)(F)F)cc1 [Compound 1-23, 4-{3-dimethylcarbamoyl-4-[(4′-trifluoromethylbiphenyl-2-carbonyl)amino]phenyl}butyric acid 4-cyanophenyl ester] | 10 to 100
9 | CCOC(=O)c1cc(Cl)c(OC(=O)CCCc2ccc(NC(=O)c3ccc(C)nc3-c3ccc(C(F)(F)F)cc3)c(C(=O)N(C)C)c2)c(OC)c1 [Compound 1-48, 3-chloro-4-[4-(3-dimethylcarbamoyl-4-{[6-methyl-2-(4-trifluoromethylphenyl)pyridine-3-carbonyl]amino}phenyl)butyryloxy]-5-methoxybenzoic acid ethyl ester] | < 10
10 | COC(=O)c1cc(C)c(OC(=O)CCCc2ccc(NC(=O)c3ccc(C)nc3-c3ccc(C(F)(F)F)cc3)c(C(=O)N(C)C)c2)c(Cl)c1 [Compound 1-35, 3-chloro-4-[4-(3-dimethylcarbamoyl-4-{[6-methyl-2-(4-trifluoromethylphenyl)pyridine-3-carbonyl]amino}phenyl)butyryloxy]-5-methylbenzoic acid methyl ester] | < 10
11 | CN(C)C(=O)c1cc(CCCC(=O)Oc2ccc(C(=O)OCc3ccc(C(=O)OC(C)(C)C)cc3)cc2)ccc1NC(=O)c1ccccc1-c1ccc(C(F)(F)F)cc1 [Compound 1-103, 4-[4-(3-dimethylcarbamoyl-4-{(4′-trifluoromethylbiphenyl-2-carbonyl)amino}phenyl)butyryloxy]benzoic acid 4-(t-butoxycarbonyl)benzyl ester] | < 10
12 | CCCOC(=O)c1ccc(OC(=O)CCCc2ccc(NC(=O)c3ccccc3-c3ccc(C(F)(F)F)cc3)c(C(=O)N(C)C)c2)cc1 [Compound 1-8, 4-(4-{3-dimethylcarbamoyl-4-[(4′-trifluoromethylbiphenyl-2-carbonyl)amino]phenyl}butyryloxy) benzoic acid propyl ester] | < 10
13 | 3-chloro-4-[4-(3-dimethylcarbamoyl-4-{[6-methyl-2-(4-trifluoromethylphenyl)pyridine-3-carbonyl]amino}phenyl)butyryloxy]-5-methoxybenzoic acid methyl ester sulfonate [Compound 1-56] | < 10
14 | COC(=O)c1ccc(OC(=O)CCCc2ccc(NC(=O)c3ccccc3-c3ccc(C(F)(F)F)cc3)c(C(=O)N3CCOCC3)c2)cc1 [Compound 1-26, 4-(4-{3-(morpholine-4-carbonyl)-4-[(4′-trifluoromethylbiphenyl-2-carbonyl)amino]phenyl}butyryloxy)benzoic acid methyl ester] | 10 to 100
15 | CCOC(=O)c1ccc(OC(=O)CCCc2ccc(NC(=O)c3ccccc3-c3ccc(C(F)(F)F)cc3)c(C(=O)N3CCCC3)c2)c(F)c1 [Compound 1-16, 3-fluoro-4-(4-{3-(pyrrolidine-1-carbonyl)-4-[(4′-trifluoromethylbiphenyl-2-carbonyl)amino]phenyl}butyryloxy)benzoic acid ethyl ester] | < 10
16 | COC(=O)c1ccc(OC(=O)CCCc2ccc(NC(=O)c3ccccc3-c3ccc(C(F)(F)F)cc3)c(C(=O)N(C)C)c2)cc1OC [Compound 1-17, 4-(4-{3-dimethylcarbamoyl-4-[(4′-trifluoromethylbiphenyl-2-carbonyl)amino]phenyl}butyryloxy)-2-methoxybenzoic acid methyl ester] | 10 to 100

Second part, the compound after the results:

Row | IC50 [nM] | Compound
17 | < 10 | COC(=O)c1cc(C)c(OC(=O)CCCc2ccc(NC(=O)c3ccccc3-c3ccc(C(F)(F)F)cc3)c(C(=O)N(C)C)c2)c(C)c1 [Compound 1-64, 4-[4-(3-dimethylcarbamoyl-4-{(4′-trifluoromethylbiphenyl-2-carbonyl)amino}phenyl)butyryloxy]-3,5-dimethylbenzoic acid methyl ester]
18 | < 10 | COC(=O)c1ccc(-c2nc(C)ccc2C(=O)Nc2ccc(CCCC(=O)Oc3c(C)cc(C(=O)OC)cc3C(=O)OC)cc2C(=O)N(C)C)cc1 [Compound 4-2, 4-[4-(3-dimethylcarbamoyl-4-{[2-(4-methoxycarbonylphenyl)-6-methylpyridine-3-carbonyl]amino}phenyl)butyryloxy]-5-methylisophthalic acid dimethyl ester]
19 | < 10 | CC(=O)NCCOC(=O)c1ccc(OC(=O)CCCc2ccc(NC(=O)c3ccccc3-c3ccc(C(F)(F)F)cc3)c(C(=O)N(C)C)c2)cc1 [Compound 1-77, 4-[4-(3-dimethylcarbamoyl-4-{(4′-trifluoromethylbiphenyl-2-carbonyl)amino}phenyl)butyryloxy]benzoic acid 2-acetylaminoethyl ester]
20 | < 10 | COc1ccc(COC(=O)c2ccc(OC(=O)CCCc3ccc(NC(=O)c4ccccc4-c4ccc(C(F)(F)F)cc4)c(C(=O)N(C)C)c3)cc2)cc1 [Compound 1-96, 4-[4-(3-dimethylcarbamoyl-4-{(4′-trifluoromethylbiphenyl-2-carbonyl)amino}phenyl)butyryloxy]benzoic acid 4-methoxybenzyl ester]
21 | < 10 | CCc1cc(C(=O)OC)cc(Cl)c1OC(=O)CCCc1ccc(NC(=O)c2ccc(C)nc2-c2ccc(C(F)(F)F)cc2)c(C(=O)N(C)C)c1 [Compound 1-73, 3-chloro-4-[4-(3-dimethylcarbamoyl-4-{[6-methyl-2-(4-trifluoromethylphenyl)pyridine-3-carbonyl]amino}phenyl)butyryloxy]-5-ethylbenzoic acid methyl ester]
22 | < 10 | COC(=O)c1cc(C)c(OC(=O)CCCc2ccc(NC(=O)c3ccc(C)nc3-c3ccc(C(F)(F)F)cc3)c(C(=O)N(C)C)c2)c(C)c1 [Compound 1-65, 4-[4-(3-dimethylcarbamoyl-4-{[6-methyl-2-(4-trifluoromethylphenyl)pyridine-3-carbonyl]amino}phenyl)butyryloxy]-3,5-dimethylbenzoic acid methyl ester]
23 | < 10 | CCc1cc(C(=O)OC)cc(C(=O)OC)c1OC(=O)CCCc1ccc(NC(=O)c2ccc(C)nc2-c2ccc(C(F)(F)F)cc2)c(C(=O)N(C)C)c1 [Compound 1-51, 4-[4-(3-dimethylcarbamoyl-4-{[6-methyl-2-(4-trifluoromethylphenyl)pyridine-3-carbonyl]amino}phenyl)butyryloxy]-5-ethylisophthalic acid dimethyl ester]
24 | 10 to 100 | COC(=O)c1ccc(OC(=O)C2CCN(c3ccc(NC(=O)c4ccccc4-c4ccc(C(F)(F)F)cc4)c(C(=O)N(C)C)c3)CC2)cc1 [Compound 3-1, 1-{3-dimethylcarbamoyl-4-[(4′-trifluoromethylbiphenyl-2-carbonyl)amino]phenyl}piperidine-4-carboxylic acid 4-methoxycarbonylphenyl ester]
25 | < 10 | CN(C)C(=O)c1cc(CCCC(=O)Oc2ccc(C(=O)OC3CCCc4ccccc43)cc2)ccc1NC(=O)c1ccccc1-c1ccc(C(F)(F)F)cc1 (centres unmarked) [Compound 1-108, 4-[4-(3-dimethylcarbamoyl-4-{(4′-trifluoromethylbiphenyl-2-carbonyl)amino}phenyl)butyryloxy]benzoic acid 1,2,3,4-tetrahydronaphthalen-1-yl ester]
26 | < 10 | CN(C)C(=O)c1cc(CCCC(=O)Oc2ccc(C(=O)OCc3ccncc3)cc2)ccc1NC(=O)c1ccccc1-c1ccc(C(F)(F)F)cc1 [Compound 1-84, 4-[4-(3-dimethylcarbamoyl-4-{(4′-trifluoremethylbiphenyl-2-carbonyl)amino}phenyl)butyryloxy]benzoic acid pyridin-4-ylmethyl ester]
